Here are results for 1 molecule from patent US20050232915A1, “Matrix metalloproteinase inhibitors in combination with hypothermia and/or radiotherapy for the treatment of cancer” (priority 2002, published 2005).

In assay [1] the test system is Panc-1 cells. Put plainly: Growth and viability of Panc-1 cells (cell proliferation assay). The settings on record: concentrations up to 10 μM. The assay is classed as cell-based, human. The method, then:
Cell proliferation is evaluated by measuring the fluorescence intensity of propidium iodide (PI) as described previously by Zhang et al. (Cancer Lett., 142: 129-137, 1999) with minor modifications. Briefly, cells are seeded in 24-well plates at a density of 3×10^4 cells per well. After overnight cultivation, cells are irradiated and cultured for 4 days. PI (30 μM) and digitonin ([…]) are added to each well to label all nuclei of the cells with PI. Fluorescence intensity corresponding to total cells in each well is measured by a multi-well plate-reader, CYTOFLUOR II (PerSeptive Biosystems Inc., Framingham, Mass., USA) with 530-nm excitation and 645-nm emission filters. The cell proliferation rate is calculated as the proportion of fluorescence intensity of each well at the time point indicated in the text to that at the day of irradiation.
(§1) Finally, we test whether a synthetic MMP inhibitor, N-hydroxy-2(R)-[[4 methoxyphenylsulfonyl](3-picolyl)amino]-3-methyl-butaneamide hydrochloride) monohydrate, could prevent the radiation-enhanced invasiveness. N-hydroxy-2(R)-[[4-methoxyphenylsulfonyl](3-picolyl)amino]-3-methyl-butaneamide hydrochloride) monohydrate is added to invasion chambers at final concentrations of 1, 5, and 10 μm just before irradiation.

The target in assay [2] is T1, MMP-2 (Homo sapiens, UniProt P08253).
T1 construct: The conditioned medium either from non-irradiated or irradiated Panc-1 cells is concentrated to 10-fold; endogenous in cells; host or cells: Panc-1 cells (conditioned medium)
T1 sequence (P08253 30-660): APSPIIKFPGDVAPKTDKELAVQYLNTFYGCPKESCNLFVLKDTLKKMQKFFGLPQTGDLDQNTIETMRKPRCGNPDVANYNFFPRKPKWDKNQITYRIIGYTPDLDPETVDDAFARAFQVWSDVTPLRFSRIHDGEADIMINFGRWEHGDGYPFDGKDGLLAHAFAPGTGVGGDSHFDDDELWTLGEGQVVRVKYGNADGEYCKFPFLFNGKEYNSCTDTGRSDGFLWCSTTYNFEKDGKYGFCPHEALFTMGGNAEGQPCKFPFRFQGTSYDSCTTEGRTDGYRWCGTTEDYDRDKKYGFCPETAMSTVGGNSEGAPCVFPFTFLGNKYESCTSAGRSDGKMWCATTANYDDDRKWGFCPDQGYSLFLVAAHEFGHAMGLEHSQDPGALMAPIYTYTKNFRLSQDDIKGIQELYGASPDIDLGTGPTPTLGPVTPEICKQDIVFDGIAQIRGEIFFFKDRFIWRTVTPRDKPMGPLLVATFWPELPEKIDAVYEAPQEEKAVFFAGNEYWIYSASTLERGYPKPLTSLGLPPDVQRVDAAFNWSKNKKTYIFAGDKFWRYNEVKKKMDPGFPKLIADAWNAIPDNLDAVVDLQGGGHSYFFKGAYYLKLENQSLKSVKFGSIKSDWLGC
Put plainly: Gelatin zymography of conditioned medium from Panc-1 cells. The following applies: 5 μM, Panc-1 conditioned medium. Type of assay: cell-based. As to the method: (§2) The conditioned medium either from non-irradiated or irradiated Panc-1 cells is concentrated to 10-fold with Centricon-10 (Amico, Beverly, Mass., USA). Samples are added to each lane and subjected to 10% SDS-polyacrylamide gel electrophoresis, using 10% polyacrylamide gel containing 1 mg/ml gelatin. After electrophoresis, the gel is washed in 2.5% Triton X-100, and incubated in 50 mM Tris-HCl buffer (pH8.0) containing 0.5 mM CaCl2 and 1 mM ZnCl2 for 20 hr at 37° C. The gel is stained with 1% Coomassie Brilliant Blue R-250 and destained with destaining buffer (5% acetic acid and 10% methanol).
(§3) To determine the role of gelatinases in the radiation-induced changes in invasive potential, we examine MMPs activity in Panc-1 cells before and after irradiation. Cells are incubated 24 h after irradiation and the conditioned medium is subjected to the gelatin zymography. Untreated Panc-1 cells secrete both latent and active forms of MMP-2 (72 kDa and 62 kDa gelatinases).
as §1

Assay [3] deals with T2, MMP-2 (Homo sapiens, UniProt P08253).
T2 construct: The conditioned medium either from non-irradiated or irradiated Panc-1 cells is concentrated to 10-fold; endogenous in cells; host or cells: Panc-1 cells (conditioned medium)
T2 sequence (P08253 110-660): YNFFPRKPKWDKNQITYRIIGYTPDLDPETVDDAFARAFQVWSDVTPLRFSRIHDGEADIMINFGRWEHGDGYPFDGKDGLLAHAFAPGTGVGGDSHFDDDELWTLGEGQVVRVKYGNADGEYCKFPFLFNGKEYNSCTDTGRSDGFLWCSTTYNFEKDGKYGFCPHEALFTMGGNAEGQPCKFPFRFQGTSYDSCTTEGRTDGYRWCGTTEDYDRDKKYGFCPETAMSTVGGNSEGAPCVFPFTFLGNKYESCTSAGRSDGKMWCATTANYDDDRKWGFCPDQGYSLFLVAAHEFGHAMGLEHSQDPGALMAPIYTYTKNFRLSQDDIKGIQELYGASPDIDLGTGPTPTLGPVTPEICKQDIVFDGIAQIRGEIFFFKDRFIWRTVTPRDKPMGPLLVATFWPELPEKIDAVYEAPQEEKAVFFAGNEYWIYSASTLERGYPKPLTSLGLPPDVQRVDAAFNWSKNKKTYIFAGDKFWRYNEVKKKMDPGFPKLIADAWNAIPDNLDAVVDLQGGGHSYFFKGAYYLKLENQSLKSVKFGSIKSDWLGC
The description is as above. The assay is classed as cell-based. The settings on record: 5 μM, Panc-1 conditioned medium. As to the method:
as §2, §3, §1
This is another data set of the same source.

The test system of assay [4] is Panc-1 cells. In words: Matrigel invasion assay after irradiation. The assay is classed as cell-based, human. The settings on record: Panc-1, irradiation at 5 Gy, inhibitor at 5 and 10 μM added just before irradiation, 24 h. As to the method:
The cells are irradiated with doses of 3, 5, or 10 Gy at room temperature using a ^137Cs source (Gamma Cell 40, Atomic Energy of Canada Ltd., Ontario, Canada) delivering 1.0 Gy/min.
Invasion of pancreatic cancer cells is measured by the invasion of cells through Matrigel-coated transwell inserts (Becton Dickinson, Franklin Lakes, N.J., USA) (Sato et al and Maehara et al ibid).
Briefly, transwell inserts with 8 μm pore are coated with Matrigel (40 μg/well, Becton Dickinson, Bedford, Mass., USA). Five hundred μl of cell suspension (1×10^5/ml) are added to the upper chambers. Same media of 750 μl are placed in the lower wells. Thereafter, the cells are irradiated and incubated for 24 h. Cells that have invaded to lower surface of the Matrigel-coated membrane are fixed with 70% ethanol, stained with H&E, and counted in five random fields under a light microscope.
as §1

With `COc1ccc(S(=O)(=O)N(Cc2cccnc2)[C@@H](C(=O)NO)C(C)C)cc1.Cl.O` [N-hydroxy-2(R)-[[4-methoxyphenylsulfonyl](3-picolyl)amino]-3-methyl-butaneamide hydrochloride)monohydrate], the “growth and viability of Panc-1 cells” value in the assay on Panc-1 cells [1] is “does not affect the growth and viability”. For the same molecule, the “enzymatic activity of latent type MMP-2 (gelatin zymography)” value at MMP-2 [2] is on record as “without affecting”. Also, the “active type MMP-2 (gelatin zymography)” value on MMP-2 [3] was “markedly decreases”. For the same molecule, in the assay with Panc-1 cells [4], the “increase in invaded cells after irradiation (radiation-enhanced invasion)” value was “significantly block the increase in invaded cells after irradiation”.
